US20250163047A1, “HETEROCYCLIC COMPOUNDS, COMPOSITIONS THEREOF, AND METHODS OF TREATMENT THEREWITH” (BeiGene, Ltd., priority 2022, published 2025)

Key:
[1] = biological target: T1, Cbl (aa49-434) (Homo sapiens, UniProt P22681); test: Co-expressed Cbl with BirA biochemical assay (CBL/E2-Ub binding, HTRF); details: 0.6 nM Cbl co-expressed with BirA, read-out: co-express CBL/E2-Ub-binding assay IC50
T1 construct: Cbl (aa49-434, in-house); made in house
T1 sequence (P22681 49-434): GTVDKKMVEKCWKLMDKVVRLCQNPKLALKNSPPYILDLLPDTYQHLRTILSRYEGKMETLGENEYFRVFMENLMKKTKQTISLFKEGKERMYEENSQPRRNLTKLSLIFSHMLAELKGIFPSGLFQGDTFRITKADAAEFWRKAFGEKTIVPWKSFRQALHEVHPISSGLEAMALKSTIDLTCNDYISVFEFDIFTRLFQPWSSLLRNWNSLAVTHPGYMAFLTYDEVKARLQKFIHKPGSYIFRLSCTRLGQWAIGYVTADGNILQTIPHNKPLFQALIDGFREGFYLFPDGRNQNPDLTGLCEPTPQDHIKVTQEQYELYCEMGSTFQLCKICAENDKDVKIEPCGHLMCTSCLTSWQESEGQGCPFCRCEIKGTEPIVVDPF
Description: (§1) The assay in the absence of a Cbl-b/Cbl inhibitor, where phosphorylation of Cbl-b/Cbl by the Src kinase allows UbcH5B-Ub to bind to Cbl-b/Cbl and brings the Bodipy-Fluorescein tagged ubiquitin in proximity to the streptavidin-terbium bound to the N-terminal biotinylated Avi-tagged Cbl-b/Cbl. […] The lack of a FRET signal indicates Cbl-b/Cbl is inhibited by the Cbl-b/Cbl inhibitor.

[2] = biological target: T2, Cbl-b (aa36-427) (Homo sapiens, UniProt Q13191); test: Co-expressed Cbl-b with BirA biochemical assay (CBLB/E2-Ub binding, HTRF); details: 0.6 nM Cbl-b co-expressed with BirA, HTRF; read-out: co-express CBLB/E2-Ub-binding assay IC50
T2 construct: Cbl-b (aa36-427, in-house); made in house
T2 sequence (Q13191 36-427): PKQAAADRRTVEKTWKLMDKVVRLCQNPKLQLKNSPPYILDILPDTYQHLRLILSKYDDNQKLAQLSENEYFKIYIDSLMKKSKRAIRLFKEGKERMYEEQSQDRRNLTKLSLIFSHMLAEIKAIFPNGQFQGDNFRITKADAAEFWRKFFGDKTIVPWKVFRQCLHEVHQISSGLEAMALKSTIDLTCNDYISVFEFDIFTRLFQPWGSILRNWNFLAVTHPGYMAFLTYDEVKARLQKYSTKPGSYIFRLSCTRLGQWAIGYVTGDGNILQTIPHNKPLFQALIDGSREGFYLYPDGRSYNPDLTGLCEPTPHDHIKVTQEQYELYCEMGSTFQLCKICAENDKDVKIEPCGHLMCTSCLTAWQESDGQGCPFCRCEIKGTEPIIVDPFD
Description: as §1

Structure (SMILES)	IC50 [1] [nM]	IC50 [2] [nM]
Cn1cnnc1[C@]1(c2cccc(NC(=O)c3cc(CNC4(C)CC4)c4[nH]cc(F)c4n3)c2)C[C@H](CC#N)C1 [Compound B54, N-(3-((1s, 3s)-3-(cyanomethyl)-1-(4-methyl-4H-1,2,4-triazol-3-yl)cyclobutyl)phenyl)-3-fluoro-7-(((1-methylcyclopropyl)amino)methyl)-1H-pyrrolo[3,2-b]pyridine-5-carboxamide]	12	1.2
Cn1cnnc1[C@]1(c2cncc(NC(=O)c3cc(CNCC4CCC4)c4[nH]cc(F)c4n3)c2)C[C@H](C)C1 [Compound B46, 7-{[(cyclobutylmethyl)amino]methyl}-3-fluoro-N-{5-[(1r, 3s)-3-methyl-1-(4-methyl-1,2,4-triazol-3-yl)cyclobutyl]pyridin-3-yl}-1H-pyrrolo[3,2-b]pyridine-5-carboxamide]	2.7	0.7
Cn1cnnc1[C@]1(c2cccc(NC(=O)c3cc(CNCC4CCCC4)cn4c(F)cnc34)c2)C[C@H](C)C1 [Compound A51, 6-(((cyclopentylmethyl)amino)methyl)-3-fluoro-N-(3-((1s, 3s)-3-methyl-1-(4-methyl-4H-1,2,4-triazol-3-yl)cyclobutyl)phenyl)imidazo[1,2-a]pyridine-8-carboxamide]	4.3	1.5
C[C@H](NCc1cc(C(=O)Nc2cccc([C@]3(c4nncn4C)C[C@@H](C)C3)c2)c2ncc(Cl)n2c1)C1CCC1 [Compound A69, 3-chloro-6-((((S)-1-cyclobutylethyl)amino)methyl)-N-(3-((1s,3R)-3-methyl-1-(4-methyl-4H-1,2,4-triazol-3-yl)cyclobutyl)phenyl)imidazo[1,2-a]pyridine-8-carboxamide]	1.7	0.8
C[C@H]1CCCN(Cc2cc(C(=O)Nc3cccc(C4(Cc5nncn5C)COC4)c3)nn3cccc23)C1 [Compound B12, N-(3-{3-[(4-methyl-1,2,4-triazol-3-yl)methyl]oxetan-3-yl}phenyl)-4-{[(3S)-3-methylpiperidin-1-yl]methyl}pyrrolo[1,2-b]pyridazine-2-carboxamide]	51.6	23.9
Cn1cnnc1[C@]1(c2cncc(NC(=O)c3cc(CNCC4CCC4)cn4c(F)cnc34)c2)C[C@H](C)C1 [Compound A71, 6-{[(cyclobutylmethyl)amino]methyl}-3-fluoro-N-{5-[(1r, 3s)-3-methyl-1-(4-methyl-1,2,4-triazol-3-yl)cyclobutyl]pyridin-3-yl}imidazo[1,2-a]pyridine-8-carboxamide]	0.9	0.6
C[C@H]1CCCN(Cc2cc(C(=O)Nc3cccc(C4(Cc5nncn5C)COC4)c3)nc3cc[nH]c23)C1 [Compound B6, (S)—N-(3-(3-((4-methyl-4H-1,2,4-triazol-3-yl)methyl)oxetan-3-yl)phenyl)-7-((3-methylpiperidin-1-yl)methyl)-1H-pyrrolo[3,2-b]pyridine-5-carboxamide]	6.9	4
Cn1cnnc1[C@]1(c2cncc(NC(=O)c3cc(CNC4(C)CC4)cn4ccnc34)c2)C[C@H](C)C1 [Compound A75, N-(5-((1s, 3s)-3-methyl-1-(4-methyl-4H-1,2,4-triazol-3-yl)cyclobutyl)pyridin-3-yl)-6-(((1-methylcyclopropyl)amino)methyl)imidazo[1,2-a]pyridine-8-carboxamide]	5.5	1.7
C[C@H]1CCCN(Cc2cc(C(=O)Nc3cccc([C@]4(c5nncn5C)C[C@@H](CC#N)C4)c3)nn3cccc23)C1 [Compound B14, 4-{[(3S)-3-methylpiperidin-1-yl]methyl}-N-{3-[(1s, 3s)-3-(cyanomethyl)-1-(4-methyl-1,2,4-triazol-3-yl)cyclobutyl]phenyl}pyrrolo[1,2-b]pyridazine-2-carboxamide]	89.9	13.6
Cn1cnnc1[C@]1(c2cccc(NC(=O)c3cc(CNCC4(C)CCC4)cn4c(Cl)cnc34)c2)C[C@H](CC#N)C1 [Compound A35, 3-chloro-N-(3-((1s, 3s)-3-(cyanomethyl)-1-(4-methyl-4H-1,2,4-triazol-3-yl)cyclobutyl)phenyl)-6-((((1-methylcyclobutyl)methyl)amino)methyl)imidazo[1,2-a]pyridine-8-carboxamide]	13	2.2
Cn1cnnc1[C@]1(c2cncc(NC(=O)c3cc(CNC4(C)CC4)c4[nH]ccc4n3)c2)C[C@H](C)C1 [Compound B44, N-(5-((1s, 3s)-3-methyl-1-(4-methyl-4H-1,2,4-triazol-3-yl)cyclobutyl)pyridin-3-yl)-7-(((1-methylcyclopropyl)amino)methyl)-1H-pyrrolo[3,2-b]pyridine-5-carboxamide]	9	1.9

Further lines, results first:

IC50 [1] [nM]	IC50 [2] [nM]	Structure (SMILES)
7	1.5	C[C@H](NCc1cc(C(=O)Nc2cncc([C@]3(c4nncn4C)C[C@@H](C)C3)c2)nc2c1CCC2(F)F)C1CCC1 [Compound C41, 4-({[(1S)-1-cyclobutylethyl]amino}methyl)-7,7-difluoro-N-{5-[(1r, 3s)-3-methyl-1-(4-methyl-1,2,4-triazol-3-yl)cyclobutyl]pyridin-3-yl}-5H,6H-cyclopenta[b]pyridine-2-carboxamide]
3.5	1	C[C@H](NCc1cc(C(=O)Nc2cccc([C@]3(c4nncn4C)C[C@@H](CC#N)C3)c2)nc2c1NCC2(C)C)C1CC1 [Compound C27, 7-({[(1S)-1-cyclopropylethyl]amino}methyl)-3,3-dimethyl-N-{3-[(1s, 3s)-3-(cyanomethyl)-1-(4-methyl-1,2,4-triazol-3-yl)cyclobutyl]phenyl}-1H,2H-pyrrolo[3,2-b]pyridine-5-carboxamide]
5.4	1.3	Cn1cnnc1[C@]1(c2cccc(NC(=O)c3cc(CNCC4CCCC4)c4c(n3)C(C)(C)CN4)c2)C[C@H](C)C1 [Compound C45, 7-{[(cyclopentylmethyl)amino]methyl}-3,3-dimethyl-N-{3-[(1r, 3s)-3-methyl-1-(4-methyl-1,2,4-triazol-3-yl)cyclobutyl]phenyl}-1H,2H-pyrrolo[3,2-b]pyridine-5-carboxamide]
19.7	2.56	C[C@H]1CCCN(Cc2cc(C(=O)Nc3cccc(C4(c5nncn5C)CC(CC#N)C4)c3)nc3c2CCC3(C)C)C1 (stereo partly drawn) [Compound C7, (S)—N-(3-(3-(cyanomethyl)-1-(4-methyl-4H-1,2,4-triazol-3-yl)cyclobutyl)phenyl)-7,7-dimethyl-4-((3-methylpiperidin-1-yl)methyl)-6,7-dihydro-5H-cyclopenta[b]pyridine-2-carboxamide]
3.3	1.5	Cn1cnnc1C[C@]1(c2cccc(NC(=O)c3cc(CNC4(C)CC4)c4c(n3)C(C)(C)CN4)c2)C[C@H](C#N)C1 [Compound C44, 3,3-dimethyl-7-{[(1-methylcyclopropyl)amino]methyl}-N-{3-[(1r, 3r)-3-cyano-1-[(4-methyl-1,2,4-triazol-3-yl)methyl]cyclobutyl]phenyl}-1H,2H-pyrrolo[3,2-b]pyridine-5-carboxamide]
25	2.3	C[C@H](NCc1cc(C(=O)Nc2cccc([C@]3(c4nncn4C)C[C@@H](CC#N)C3)c2)nc2c1OCC2(C)C)C1CC1 [Compound C26, N-(3-((1s,3R)-3-(cyanomethyl)-1-(4-methyl-4H-1,2,4-triazol-3-yl)cyclobutyl)phenyl)-7-((((S)-1-cyclopropylethyl)amino)methyl)-3,3-dimethyl-2,3-dihydrofuro[3,2-b]pyridine-5-carboxamide]
